Measured values published in the Kinase Knowledgebase extract (Sharma et al. 2016).
pIC50: −log10 of the molar value.

Each compound was assayed against MAPK14 (human) (UniProt Q16539) (assay: Inhibition of MAPK14 Kinase Activity). Settings: not given.
MAPK14 (human), sequence (Q16539 whole entry, looked up): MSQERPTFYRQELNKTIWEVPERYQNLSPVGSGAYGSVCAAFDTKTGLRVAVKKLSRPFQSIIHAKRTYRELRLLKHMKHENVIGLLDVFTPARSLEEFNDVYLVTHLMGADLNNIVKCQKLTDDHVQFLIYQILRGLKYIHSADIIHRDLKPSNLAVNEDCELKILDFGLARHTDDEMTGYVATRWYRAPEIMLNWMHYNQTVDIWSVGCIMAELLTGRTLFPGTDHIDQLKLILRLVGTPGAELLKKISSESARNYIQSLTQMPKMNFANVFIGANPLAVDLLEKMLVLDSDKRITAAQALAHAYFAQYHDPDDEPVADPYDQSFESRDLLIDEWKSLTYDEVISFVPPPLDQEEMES

Compound | pIC50
CN(C)C(=O)CN1CCN(C(=O)c2cc(C(C)(C)C)sc2NC(=O)Nc2cccc(Cl)c2Cl)C(C)(C)C1=O | > 5.30
COC(=O)CC1CC(=O)NCCN1C(=O)c1cc(C(C)(C)C)sc1NC(=O)Nc1cccc(Cl)c1Cl (stereo unspecified) | > 5.30
COCOCCN1CCN(C(=O)c2cc(C(C)(C)C)sc2NC(=O)Nc2cccc(Cl)c2Cl)C(C)(C)C1=O | > 5.30
CC(C)(C)c1cc(C(=O)NCC(F)(F)F)c(NC(=O)Nc2cccc(Cl)c2Cl)s1 | > 5.30
CC(C)(C)c1cc(C(=O)N2CCNC(=O)CC2)c(NC(=O)Nc2ccccc2C(F)(F)F)s1 | > 5.30
CC(C)(C)c1cc(C(=O)N2CCNC(=O)C2(C)CC(=O)O)c(NC(=O)Nc2cccc(Cl)c2Cl)s1 (stereo unspecified) | > 5.30
CC(C)(C)c1cc(C(=O)N2CCNC(=O)C2)c(NC(=O)Nc2cccc3c2OCO3)s1 | > 5.30
CON(C)C(=O)CN1CCN(C(=O)c2cc(C(C)(C)C)sc2NC(=O)Nc2cccc(Cl)c2Cl)C(C)(C)C1=O | > 5.30
COC(=O)CN1CCN(C(=O)c2[nH]c(C(C)(C)C)cc2NC(=O)Nc2cccc(Cl)c2Cl)C(C)(C)C1=O | > 5.30
CC(C)(C)c1cc(C(=O)N2CCN(C(=O)N3CCOCC3)CC2)c(NC(=O)Nc2cccc(Cl)c2Cl)s1 | > 5.30
CC(C)(C)OC(=O)N1CCN(C(=O)c2cc(C(C)(C)C)sc2NC(=O)Nc2cccc(Cl)c2Cl)CC1 | > 5.30
CONC(=O)CC1(C)C(=O)NCCN1C(=O)c1cc(C(C)(C)C)sc1NC(=O)Nc1ccc(F)c(Cl)c1Cl (stereo unspecified) | > 5.30
CN(C)CCN1CCN(C(=O)c2cc(C(C)(C)C)sc2NC(=O)Nc2ccccc2Cl)CCC1=O | > 5.30
CN(C)CCCCCN1CCN(C(=O)c2cc(C(C)(C)C)sc2NC(=O)Nc2cccc(Cl)c2Cl)C(C)(C)C1=O | > 5.30
CN1CCN(C(=O)c2cc(C(C)(C)C)sc2NC(=O)Nc2cccc(Cl)c2Cl)C(C)(CC(N)=O)C1=O (stereo unspecified) | > 5.30
CCC1(C)C(=O)N(CC(=O)NCCN(C)C)CCN1C(=O)c1cc(C(C)(C)C)sc1NC(=O)Nc1ccc(F)cc1Cl (stereo unspecified) | > 5.30
CC(C)(C)c1cc(C(=O)N2CC(=O)NC(CO)C2)c(NC(=O)Nc2cccc(Cl)c2Cl)s1 (stereo unspecified) | > 5.30
CN(C)CCN1CCN(C(=O)c2cc(C(C)(C)C)sc2NC(=O)Nc2ccc(F)c(F)c2Cl)C(C)(C)C1=O | > 5.30
CN(C)CCN1CCN(C(=O)c2cc(C(C)(C)C)sc2NC(=O)Nc2cccc(Cl)c2Cl)C(C)(C)C1=O | > 5.30
CN1CCN(C(=O)c2cc(C(C)(C)C)sc2NC(=O)Nc2cccc(Cl)c2Cl)C(C)(C)C1=O | > 5.30
COC(=O)CN1CCN(C(=O)c2cc(C(C)(C)C)sc2NC(=O)Nc2ccc(F)c(Cl)c2Cl)C(C)(C)C1=O | > 5.30
CCC1(C)C(=O)NCCN1C(=O)c1cc(C(C)(C)C)sc1NC(=O)Nc1ccc(F)cc1Cl (stereo unspecified) | > 5.30
CC(C)(C)c1cc(C(=O)N2CCNC(=O)CC2)c(NC(=O)Nc2ccccc2Cl)s1 | > 5.30
CCC1(C)C(=O)N(CC(=O)NCCN(C)C)CCN1C(=O)c1cc(C(C)(C)C)sc1NC(=O)Nc1cccc(Cl)c1Cl (stereo unspecified) | > 5.30
COc1ccc(NC(=O)Nc2sc(C(C)(C)C)cc2C(=O)N2CCNC(=O)CC2)c(Cl)c1Cl | > 5.30
CN(C)CCN1CCN(C(=O)c2sc(C(C)(C)C)cc2NC(=O)Nc2ccc(F)c(Cl)c2Cl)C(C)(C)C1=O | > 5.30

Compound | pIC50
CC(C)(C)c1cc(C(=O)N2CCN(CCC(=O)N(CCO)CCO)C(=O)C2(C)C)c(NC(=O)Nc2cccc(Cl)c2Cl)s1 | > 5.30
CC(C)(C)c1cc(C(=O)N2CCN(S(C)(=O)=O)CC2)c(NC(=O)Nc2cccc(Cl)c2Cl)s1 | > 5.30
CC(C)c1ccccc1NC(=O)Nc1sc(C(C)(C)C)cc1C(=O)N1CCNC(=O)CC1 | > 5.30
CC(C)(C)c1cc(C(=O)N2CCNC(=O)CC2)c(NC(=O)Nc2cc(F)cc(F)c2)s1 | > 5.30
C[C@@H]1C(=O)NCCN1C(=O)c1cc(C(C)(C)C)sc1NC(=O)Nc1cccc(Cl)c1Cl | > 5.30
CN(C)CCN1CCN(C(=O)c2cc(C(C)(C)C)sc2NC(=O)Nc2ccccc2C(F)(F)F)CCC1=O | > 5.30
CN(C)CCN1CCN(C(=O)c2nc(C(C)(C)C)sc2NC(=O)Nc2cccc(Cl)c2Cl)CCC1=O | > 5.30
CC(C)(C)c1cc(C(=O)N2CCNC(=O)C23CCCC3)c(NC(=O)Nc2cccc(Cl)c2Cl)s1 | > 5.30
CN(C)CCCNC(=O)CN1CCN(C(=O)c2cc(C(C)(C)C)sc2NC(=O)Nc2cccc(Cl)c2Cl)C(C)(C)C1=O | > 5.30
CN(C)CCN1CCN(C(=O)c2cc(C(C)(C)C)sc2NC(=O)Nc2ccc(F)c(Cl)c2Cl)C(C)(C)C1=O | > 5.30
Cc1c(F)cccc1NC(=O)Nc1sc(C(C)(C)C)cc1C(=O)N1CCNC(=O)C1(C)CCO (stereo unspecified) | > 5.30
O=C(Nc1cc(C(F)(F)F)c(Cl)cc1C(=O)N1CCS(=O)(=O)CC1)Nc1cccc(Cl)c1Cl | > 5.30
CC(C)(C)c1cc(NC(=O)Nc2ccc(F)c(Cl)c2Cl)c(C(=O)N2CCNC(=O)C2(C)CCO)s1 (stereo unspecified) | > 5.30
CC(C)(C)c1cc(C(=O)N2CCS(=O)(=O)CC2)c(NC(=O)Nc2ccc3c(c2Cl)OCO3)s1 | > 5.30
CON(C)C(=O)CN1CCN(C(=O)c2cc(C(C)(C)C)sc2NC(=O)Nc2ccc(F)c(F)c2Cl)C(C)(C)C1=O | > 5.30
O=C(Nc1cc(C(=O)N2CCS(=O)(=O)CC2)cc(C(F)(F)F)c1)Nc1cccc(Cl)c1Cl | > 5.30
CN(C)CCN1CCN(C(=O)c2cc(C(C)(C)C)sc2NC(=O)Nc2ccc(F)cc2Cl)CCC1=O | > 5.30
CN(C)CCN1CCN(C(=O)c2cc(C(C)(C)C)sc2NC(=O)Nc2ccccc2C(F)(F)F)C(C)(C)C1=O | > 5.30
CC(C)(C)c1cc(C(=O)N2CCNC(=O)C2(C)CC(N)=O)c(NC(=O)Nc2ccc(F)c(Cl)c2Cl)s1 (stereo unspecified) | > 5.30
CC(C)(C)c1nc(C(=O)N2CCC(=O)N(CCC(N)=O)CC2)c(NC(=O)Nc2cccc(Cl)c2Cl)s1 | > 5.30
CON(C)C(=O)CN1CCN(C(=O)c2cc(C(C)(C)C)sc2NC(=O)Nc2ccc(F)cc2Cl)CCC1=O | > 5.30
CC(C)(C)c1nc(C(=O)N2CCNC(=O)CC2)c(NC(=O)Nc2cccc(Cl)c2Cl)s1 | > 5.30
CCC(C)(C)c1cc(NC(=O)Nc2ccc(F)c(Cl)c2Cl)c(C(=O)N2CCNC(=O)C2(C)C)[nH]1 | > 5.30
CC(C)(C)c1cc(NC(=O)Nc2ccc(F)c(Cl)c2Cl)c(C(=O)N2CCNC(=O)C2(C)C)[nH]1 | > 5.30
CC(C)(C)c1cc(C(=O)N2CCNC(=O)CC2)c(NC(=O)Nc2cccc3c2OCO3)s1 | > 5.30

Same assay, conditions: concentration not given here

Compound | inhibition
CC(C)(C)c1cc(C(=O)N2CCNC(=O)CC2)c(NC(=O)Nc2ccc(CN)c3ccccc23)s1 | 76 to 100%
CC(C)(C)c1cc(C(=O)N2CCNC(=O)C2)c(NC(=O)Nc2cccc3ccccc23)s1 | 76 to 100%
CC(C)(C)c1cc(C(=O)N2CCNC(=O)CC2)c(NC(=O)Nc2ccc3ocnc3c2)s1 | 76 to 100%
Cn1ccc(NC(=O)Nc2sc(C(C)(C)C)cc2C(=O)N2CCNS(=O)(=O)CC2)n1 | 26 to 50%
CC(C)(C)c1cc(C(=O)N[C@@H]2CC(=O)NC2=O)c(NC(=O)Nc2ccc(Cl)cc2)s1 | 76 to 100%
COCCOCCN1CCN(C(=O)c2cc(C(C)(C)C)sc2NC(=O)Nc2cccc(Cl)c2Cl)CCC1=O | 76 to 100%
CNC(=O)Nc1cc(C(C)(C)C)sc1C(=O)N1CCNC(=O)CC1 | 0 to 25%
CC(C)(C)c1cc(C(=O)N2CCNC(=O)CC2)c(NC(=O)Nc2ccnc3ccccc23)s1 | 51 to 75%
CC(C)(C)c1nc(NC(=O)Nc2cccc3ccccc23)c(C(=O)N2CCNC(=O)CC2)s1 | 76 to 100%
CC(C)(C)c1cc(C(=O)N2CCNC(=O)CC2)c(NC(=O)Nc2cnc(O)c3ccccc23)s1 | 26 to 50%
